This assay concerns 616215-338-R-J1-PDC tumor spheroids, viability. Briefly: Anticancer human tumor 616215-338-R-J1-PDC patient-derived colon adenocarcinoma cell line growth inhibition [GQUAD]. The note with it: spheroids with HUVEC and MSC; for viability, T/C: stronger effect = lower value. The text has this:
DNA G-quadruplex Stabilizer Agents in Combinations in Complex Spheroids
A high-throughput screen of multi-cell type tumor spheroids was designed to identify active combinations of DNA G-quadruplex stabilizer agents and targeted small molecules. Complex spheroids include a stromal component modeled by human endothelial cells (HUVEC) and fibroblasts modeled by human mesenchymal stem cells (MSCs). The concentration ranges selected for each drug and investigational agent were based upon clinically achievable concentrations if the clinical Cmax of the agent was known.
Compounds. The drugs and investigational agents: pidnarulex (CX-5461; NSC782164), APTO-253 (NSC789042), BRACO-19 (NSC847499), peposertib (NSC802822), ceralasertib (NSC780249), elimusertib (NSC800525), camonsertib (NSC841442), AZD-1390 (NSC803789), olaparib (NSC753686), talazoparib (NSC767125), ART-558 (NSC835418), sotorasib (NSC818433), MRTX-1133 (NSC836407), SN-38 (NSC673596), topotecan (NSC609699), etoposide (NSC141540), doxorubicin (NSC123127), gemcitabine (NSC613327), 5-fluorouracil (NSC19893), paclitaxel (NSC125973), vemurafenib (NSC761431), panobinostat (NSC761190), R-306465 (JNJ-16241199; NSC773264), adavosertib (NSC754352), TP-3654 (NSC805149), carboplatin (NSC241240), KSQ-4279 (NSC840948), and staurosporine (NSC755774) were obtained from the National Cancer Institute (NCI) Developmental Therapeutics Program Chemical Repository (34). The FDA-approved anticancer drug set is available from the NCI Developmental Therapeutics Program. […] The stock solutions were prepared in dimethyl sulfoxide (DMSO, Sigma-Aldrich, St. Louis, MO, cat. D2650) at 800-fold the tested concentration and stored at -70 degrees C prior to their use. All drugs and investigational agents were tested over a range starting from a high concentration at or near the clinical Cmax and decreasing in half-log increments. If the clinical Cmax for an agent had not been determined, the highest concentration tested was 10 microM.
2.3 Cell Culture. All cells were maintained in an incubator at 37 degrees C and 5% CO2 with 95% humidity. The PDC lines were cultured according to standard operating procedures established by the NCI PDMR. All PDCs were thawed and cultured in Matrigel-coated flasks prepared with a working solution of 1X Ham's F-12 nutrient mix, without supplementation (Invitrogen, cat. 11765054), 100 U/mL penicillin-streptomycin (Invitrogen, cat. 15140122), and 2.5% Matrigel (Corning Inc., cat. 354248) for the first three passages. The 857933-349-R-J2-PDC line was cultured in 6C/Colon 1B media, which includes advanced DMEM/F-12 (Thermo Fisher Scientific, cat. 12634028), 10 mM HEPES (Thermo Fisher Scientific, cat. 15630080), 1X GlutaMAX supplement (Thermo Fisher Scientific, cat. 35050061), 0.1 mg/mL primocin (InvivoGen, cat. ant-pm-2), 10% defined fetal bovine serum, heat inactivated (HyClone Laboratories Inc., cat. SH30070.03HI), 50% L-WRN conditioned media (ATCC, cat. CRL-3276), 1.25 mM N-Acetyl-L-cysteine (Sigma-Aldrich, cat. A9165), 10 mM nicotinamide (Sigma-Aldrich, cat. N0636), 1X B-27 supplement (Thermo Fisher Scientific, cat. 17504044), 1X N-2 supplement (Thermo Fisher Scientific, cat. 17502048), 10 microM Y-27632 dihydrochloride (Tocris Bioscience, cat. 1254), and 50 ng/mL human EGF recombinant protein (Thermo Fisher Scientific, cat. PHG0311). The 485176-168-R4-J1-PDC line was cultured in Panc media, which includes all 6C/Colon 1B media components plus 100 ng/mL human FGF-10 (Thermo Fisher Scientific, cat. 100-26), 500 nM SB-431542 (Selleckchem, cat. S1067), and gastrin (Tocris, cat. 3006).
[…]

SMILES strings stand for the structures. Where “and” joins values, the source holds several entries; their conditions need not be identical. Equal values may be shown once. Where only a bound is given, the exact number is not on record here.
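Also: spheroids exposed to agents for 7 days before readout.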
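For viability, T/C in this document: percent viability relative to DMSO vehicle control wells taken as 100%.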

Regarding `C#Cc1c(F)ccc2cc(O)cc(-c3ncc4c(N5CC6CCC(C5)N6)nc(OCC56CCCN5CC(F)C6)nc4c3F)c12` (centres undefined), the viability, T/C (compound 0.0316 µM) is 100% and 113% and 106%; the viability, T/C (compound 0.1 µM) was 90.1% and 98.3% and 110%; the viability, T/C (compound 0.316 µM) is 102% and 104% and 110%; the viability, T/C (compound 1 µM) is 80.2% and 106% and 104%; the viability, T/C (compound 3.16 µM) was 68% and 106% and 91.7%; the viability, T/C (compound 10 µM) is 45.8% and 63.5% and 59.2%. In addition, under “curve of compound”, the IC50 was 8040 nM and > 10000 nM.
`C=CCn1c(=O)c2cnc(Nc3ccc(N4CCN(C)CC4)cc3)nc2n1-c1cccc(C(C)(C)O)n1`: the viability, T/C is 106% and 108% and 101% (compound 0.0316 µM); 94.6% and 98.4% and 92.7% (compound 0.1 µM); 53% and 53.7% and 76.8% (compound 0.316 µM); 24.1% and 24.6% and 28.5% (compound 1 µM); 13.3% and 13.7% and 23.5% (compound 3.16 µM); 12.5% and 12% and 23.2% (compound 10 µM). Under “curve of compound”, the 50% inhibitory concentration (IC50) is 367 nM and 381 nM and 601 nM.
For `CC(C)(O)C1CCC(Nc2ccc3ncc(-c4cccc(C(F)(F)F)c4)n3n2)CC1` (centres undefined), the viability, T/C (compound 0.0316 µM) was 103% and 105% (2×); the viability, T/C (compound 0.1 µM) is 92.2% and 90.8% and 100%; the viability, T/C (compound 0.316 µM) is 108% and 95.6% and 93.2%; the viability, T/C (compound 1 µM) was 16.1% and 27.9% and 33.8%; the viability, T/C (compound 3.16 µM) was 0.52% and 1.27% and 3.2%; the viability, T/C (compound 10 µM) is 12.4% and 1.83% and 2.83%. In addition, the IC50 (curve of compound) was 631 nM and 686 nM and 729 nM.
As for `CCCS(=O)(=O)Nc1ccc(F)c(C(=O)c2c[nH]c3ncc(-c4ccc(Cl)cc4)cc23)c1F`, the viability, T/C runs as follows: (compound 0.0316 µM) 100% (2×) and 106%; (compound 0.1 µM) 103% and 95.3% and 98.6%; (compound 0.316 µM) 97.9% and 100% and 97.8%; (compound 1 µM) 97% and 88.9% and 91.9%; (compound 3.16 µM) 89.7% and 88.8% and 104%; (compound 10 µM) 3.68% and 3.75% and 6.39%. Further, the half-inhibitory concentration (IC50) (curve of compound) is 5380 nM and 5350 nM and 5840 nM.
Consider `COc1ncnc(C2CC2)c1-c1ncc2cnn(Cc3ccc(-c4nc(C(F)(F)F)cn4C(C)C)cc3)c2n1`, for which the viability, T/C reads like this: (compound 0.0316 µM) 113% and 96.4% and 110%; (compound 0.1 µM) 108% and 109% and 97.3%; (compound 0.316 µM) 99.2% and 103% and 102%; (compound 1 µM) 116% and 99.7% and 105%; (compound 3.16 µM) 106% and 100% (2×); (compound 10 µM) 106% and 92.4% and 93.6%. In addition, the IC50 (curve of compound) is over 10000 nM.
Regarding `O=C(NO)c1cnc(N2CCN(S(=O)(=O)c3ccc4ccccc4c3)CC2)nc1`, the viability, T/C is, setting by setting: (compound 0.0316 µM) 101% and 114% and 112%; (compound 0.1 µM) 96.7% and 102% and 94.6%; (compound 0.316 µM) 53.2% (2×) and 60.8%; (compound 1 µM) 1.44% and 0.67% and 2.74%; (compound 3.16 µM) 0.23% and 0.21% and 0.06%; (compound 10 µM) 0.22% and 0.09%. Besides, where the note is “curve of compound”, the IC50 is 339 nM and 331 nM and 380 nM.
For the compound `Cn1ncnc1[C@H]1c2n[nH]c(=O)c3cc(F)cc(c23)N[C@@H]1c1ccc(F)cc1` + CN(C)c1ccc(Nc2c3ccc(NC(=O)CCN4CCCC4)cc3nc3cc(NC(=O)CCN4CCCC4)ccc23)cc1, the IC50 (curve of first compound, second compound 0.0316 µM) was over 316 nM; the IC50 (curve of first compound, second compound 0.1 µM) is over 316 nM; the IC50 (curve of first compound, second compound 0.316 µM) was over 316 nM; the IC50 (curve of first compound, second compound 1 µM) was over 316 nM; the IC50 (curve of first compound, second compound 3.16 µM) is over 316 nM; the IC50 (curve of first compound, second compound 10 µM) is over 316 nM. Also, the viability, T/C reads like this: (second compound 0.0316 µM, first compound 0.000999 µM) 103%; (second compound 0.0316 µM, first compound 0.00316 µM) 101%; (second compound 0.0316 µM, first compound 0.00999 µM) 99.7%; (second compound 0.0316 µM, first compound 0.0316 µM) 104%; (second compound 0.0316 µM, first compound 0.0999 µM) 112%; (second compound 0.0316 µM, first compound 0.316 µM) 97%. The viability, T/C (second compound 0.1 µM, first compound 0.000999 µM) was 99.5%; the viability, T/C (second compound 0.1 µM, first compound 0.00316 µM) was 113%; the viability, T/C (second compound 0.1 µM, first compound 0.00999 µM) was 104%; the viability, T/C (second compound 0.1 µM, first compound 0.0316 µM) was 99.8%; the viability, T/C (second compound 0.1 µM, first compound 0.0999 µM) was 95%; the viability, T/C (second compound 0.1 µM, first compound 0.316 µM) is 96.6%. For the same compound, the viability, T/C by setting is: (second compound 0.316 µM, first compound 0.000999 µM) 98.2%; (second compound 0.316 µM, first compound 0.00316 µM) 92.2%; (second compound 0.316 µM, first compound 0.00999 µM) 108%; (second compound 0.316 µM, first compound 0.0316 µM) 111%; (second compound 0.316 µM, first compound 0.0999 µM) 102%; (second compound 0.316 µM, first compound 0.316 µM) 106%. Also, the viability, T/C runs as follows: (second compound 1 µM, first compound 0.000999 µM) 100%; (second compound 1 µM, first compound 0.00316 µM) 91.9%; (second compound 1 µM, first compound 0.00999 µM) 104%; (second compound 1 µM, first compound 0.0316 µM) 103%; (second compound 1 µM, first compound 0.0999 µM) 98.1%; (second compound 1 µM, first compound 0.316 µM) 87.7%. Further, the viability, T/C by setting is: (second compound 3.16 µM, first compound 0.000999 µM) 103%; (second compound 3.16 µM, first compound 0.00316 µM) 92.2%; (second compound 3.16 µM, first compound 0.00999 µM) 94.2%; (second compound 3.16 µM, first compound 0.0316 µM) 101%; (second compound 3.16 µM, first compound 0.0999 µM) 90.5%; (second compound 3.16 µM, first compound 0.316 µM) 95.4%. Also, the viability, T/C is, setting by setting: (second compound 10 µM, first compound 0.000999 µM) 94.4%; (second compound 10 µM, first compound 0.00316 µM) 77.8%; (second compound 10 µM, first compound 0.00999 µM) 91.9%; (second compound 10 µM, first compound 0.0316 µM) 89%; (second compound 10 µM, first compound 0.0999 µM) 90.9%; (second compound 10 µM, first compound 0.316 µM) 86.7%.

A word on the viability, T/C: it is the ratio of treated to control. In general, IC50 refers to the point on the concentration scale where inhibition reaches its midpoint.

The values are drawn from PubChem BioAssay AID2060493 (Molecular Pharmacology Branch, DTP, NCI, 2025).
